Results: paper PMC8518915, “Evaluation of 4‐(4‐Fluorobenzyl)piperazin‐1‐yl]‐Based Compounds as Competitive Tyrosinase Inhibitors Endowed with Antimelanogenic Effects” (Chemmedchem, 2021)
“Also recorded” adds a separate entry of the source. Read-outs that look alike come from different tables or passages of the source.

Key:
[1] = tested on: B16F10 cells; assay: MTT assay for cell viability; assay type: cell-based, Murine; conditions: B16F10 melanoma cells, 48 h, at the concentration inhibiting tyrosinase activity
Description: (§1) MTT assay was used to evaluate the biosafety effectiveness of 23, 25 and 26. Cells were treated with different concentration of each compound (0–100 μM), for 48 h, to determine the potential cytotoxic effect on B16F10 cells. […] To achieve a deeper characterization of most promising and potent inhibitor 26, we further examined its inhibitory effect on the tyrosinase activity in the cellular model. DOPA staining assay was performed using lysates of B16F10 cells untreated or treated with hormone with or without the tested compound 26. […] This was evident with the appearance of a darker band compared to that of untreated control (Figure 7). […] As result, the inhibitory effects of the compound 26 was also confirmed in the cellular model.
(§2) The viability of B16F10 cells was detected by the colorimetric 3‐(4,5‐dimethylthiazol‐2‐yl)‐2,5‐diphenyltetrazolium bromide (MTT) assay. A density of 5x10^3 cells/well, in the absence or presence of compounds (ranging from 1 μM to 100 μM), were seeded in 96‐well plates. The cells were incubated for 48 h at the temperature of 37 °C. MTT solution (0.5 mg/mL) was added at the end of incubation time. The medium was removed after 3 h of incubation at 37 °C. Then, DMSO was added to the precipitates and the absorbance was determined at 560 nm using a microplate reader (Multiskan FC – Thermo Scientific). The cell viability was expressed as the percentage of the amount of living cells in treated samples relative to untreated controls (100 % viability). The mean value and standard deviation (SD) were calculated from triplicate experiments.

[2] = MTT assay for cell viability; assay type: cell-based, Murine; conditions: mouse, B16F10 melanoma cells, B16F10 cells, 100 μM (highest concentration)
Description: as §1, §2

[3] = molecular target: T1, TYR from Agaricus bisporus (AbTYR) (Agaricus bisporus, UniProt C7FF04); assay: Kinetic analysis of the tyrosinase inhibition (Lineweaver‐Burk plots); assay type: biochemical; conditions: L‐DOPA 0.6–5 mM
T1 construct: purchased Sigma Chemical Co. (St. Louis, MO, USA)
T1 sequence (C7FF04 1-392 limits assumed): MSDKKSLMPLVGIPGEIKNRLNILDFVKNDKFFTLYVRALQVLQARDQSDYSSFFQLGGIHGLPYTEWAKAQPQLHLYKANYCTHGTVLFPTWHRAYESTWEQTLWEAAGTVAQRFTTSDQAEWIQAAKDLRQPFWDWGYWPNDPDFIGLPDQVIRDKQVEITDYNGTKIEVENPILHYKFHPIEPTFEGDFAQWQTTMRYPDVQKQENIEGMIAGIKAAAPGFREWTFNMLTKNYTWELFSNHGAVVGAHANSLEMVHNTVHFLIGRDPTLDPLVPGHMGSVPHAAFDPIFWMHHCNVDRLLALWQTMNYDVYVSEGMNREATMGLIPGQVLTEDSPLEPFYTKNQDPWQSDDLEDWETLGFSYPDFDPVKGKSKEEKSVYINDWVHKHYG
Description: Compounds 23, 25 and 26 were selected for kinetic studies to obtain more information about the mode of action against TYR; thereby their inhibitory effects on diphenolase activity were measured using increasing concentration of L‐DOPA. (0.6–5 mM). The reaction mixture consisted of four different concentrations of L‐DOPA (0.6–5 mM), the substrate, and AbTYR in […] (0.05 M, pH 6.8).
Compounds 23 and 25 (0.2, 0.4, and 0.8 μM), 26 (0.09, 0.18, and 0.36 μM) were added to the reaction mixture. The Michaelis‐Menten constant (Km) and maximal velocity (Vmax) of tyrosinase were determined by Lineweaver‐Burk plots.
A series of experiments were performed to determine the mode of inhibition of compounds 23, 25, 26 on tyrosinase. The reaction mixture consisted of four different concentrations of the substrate L‐DOPA (0.6–5 mM), and mushroom tyrosinase in phosphate buffer (0.05 M, pH 6.8). In addition, three different concentrations of compounds 23, 25, 26 (0.2–0.4–0.8 μM) were used for the analysis. Preincubation and measurement time were the same as discussed in mushroom tyrosinase inhibition assay. The Michaelis‐Menten constant (Km) and maximal velocity (Vmax) of tyrosinase were determined by Lineweaver‐Burk plots.

[4] = tested on: AbTYR; conditions: cited from earlier work; for IC50: efficacy against AbTYR; for mode of inhibition: prototypical AbTYR inhibitor
[5] = tested on: tyrosinase activity in B16F10 cells; assay: Tyrosinase zymography (L‐DOPA staining) of cell lysates; assay type: cell-based, Murine
Description: as §1
The tyrosinase activity was performed by DOPA‐staining assay as previously reported but with slight modifications.[29] A day after seeding the B16F10 cells (6X104 cells/mL) the culture medium was changed by the same medium supplemented with either α‐MSH alone or α‐MSH plus compound (0–100 μM)) or kojic acid (100 μM). After incubation for 48 h, cells were washed and lysed using phosphate buffer (50 mM, pH 6.8) containing Triton X‐100 (1 %) and phenylmethyl‐sulfonyl fluoride (0.1 mM). Cellular lysates were centrifugated at 12000 g for 20 min at 4 °C. Bradford method was used to determine the protein content using BSA as standard. […]

[6] = molecular target: T1, TYR from Agaricus bisporus (AbTYR); conditions: AbTYR kinetic studies; cited from earlier work

Which melting point does the source give for O=C(c1ccc(Cl)cc1[N+](=O)[O-])N1CCN(Cc2ccc(F)cc2)CC1 [Compound 27, 1‐[4‐(4‐Fluorobenzyl)piperazin‐1‐yl]‐(4‐chloro‐2‐nitro‐phenyl)methanone] here?
The melting point was 141 to 142 °C.

For O=C(Cc1ccc([N+](=O)[O-])cc1)N1CCN(Cc2ccc(F)cc2)CC1 [Compound 18, 1‐[4‐(4‐Fluorobenzyl)piperazin‐1‐yl]‐2‐(4‐nitrophenyl)ethan‐1‐one], which melting point is on record?
The melting point was 98 to 100 °C.

What does the source list for O=C(c1cccc(F)c1C(F)(F)F)N1CCN(Cc2ccc(F)cc2)CC1 [Compound 23, 1‐[4‐(4‐Fluorobenzyl)piperazin‐1‐yl]‐[3‐fluoro‐2‐(trifluoromethyl)phenyl]methanone]?
cytotoxic effect [1]: no cytotoxic effect; also recorded: no cytotoxicity; viability at 48 h, 100 µM [2]: > 90%; mode of inhibition of diphenolase activity [3]: competitive inhibitors

For COc1ccc(C(=O)N2CCN(Cc3ccc(F)cc3)CC2)c([N+](=O)[O-])c1 [Compound 31, 1‐[4‐(4‐Fluorobenzyl)piperazin‐1‐yl]‐(4‐methoxy‐2‐nitro‐phenyl)methanone], which melting point is on record?
The melting point was 133 to 134 °C.

For O=C(CN1CCC(Cc2ccccc2)CC1)N1CCN(c2ccc(O)cc2)CC1 [Compound 3, 2‐(4‐benzyl‐1‐piperidyl)‐1‐[4‐(4‐hydroxyphenyl)piperazin‐1‐yl]ethanone], which IC50 [4] is on record?
The IC50 was 3800 nM.

And the mode of inhibition [4]?
The mode of inhibition was “noncompetitive”.

For O=C(Cc1ccc(Cl)cc1)N1CCN(Cc2ccc(F)cc2)CC1 [Compound 12, 1‐[4‐(4‐Fluorobenzyl)piperazin‐1‐yl]‐2‐(4‐chlorophenyl)ethan‐1‐one], which melting point is on record?
The melting point was 120 to 122 °C.

For COc1cc2[nH]cc(C(=O)CCN3CCC(Cc4ccc(F)cc4)CC3)c2cc1OC [Compound 4, 1‐(5,6‐dimethoxy‐1H‐indol‐3‐yl)‐3‐(4‐(4‐fluorobenzyl)piperidin‐1‐yl)propan‐1‐one], which IC50 [4] is on record?
The IC50 was 7560 nM.

And the mode of inhibition [4]?
The mode of inhibition was “mixed‐type”.

Which melting point does the source give for COc1ccc([N+](=O)[O-])c(C(=O)N2CCN(Cc3ccc(F)cc3)CC2)c1 [Compound 32, 1‐[4‐(4‐Fluorobenzyl)piperazin‐1‐yl]‐(5‐methoxy‐2‐nitro‐phenyl)methanone] here?
Its melting point is 151 to 152 °C.

What does the source list for CCOc1cccc(C(C)=NNC(N)=S)c1 [Compound 1, 2‐(1‐(3‐ethoxyphenyl)ethylidene)hydrazine‐1carbothioamide]?
IC50 [4]: 850 nM; mode of inhibition [4]: competitive

For O=C(c1cc(F)ccc1C(F)(F)F)N1CCN(Cc2ccc(F)cc2)CC1 [Compound 25, 1‐[4‐(4‐Fluorobenzyl)piperazin‐1‐yl]‐[5‐fluoro‐2‐(trifluoromethyl)phenyl]methanone], which cytotoxic effect [1] is on record?
The cytotoxic effect was “no cytotoxic effect; also recorded: no cytotoxicity”.

What about the viability at 48 h, 100 µM [2] of the same compound?
Its viability at 48 h, 100 µM is over 90%.

What about the “mode of inhibition of diphenolase activity” value [3] of the same compound?
The value was “competitive inhibitors”.

For O=C(c1cc(Cl)ccc1[N+](=O)[O-])N1CCN(Cc2ccc(F)cc2)CC1 [Compound 28, 1‐[4‐(4‐Fluorobenzyl)piperazin‐1‐yl]‐(5‐chloro‐2‐nitro‐phenyl)methanone], which melting point is on record?
Its melting point is 130 to 131 °C.

With O=c1cc(CO)occ1O [KA, 5‐hydroxy‐2‐(hydroxymethyl)‐4H‐pyran‐4‐one] as the compound, how does the mode of inhibition ([4]; classification from literature) read?
Its mode of inhibition is “competitive”.

What does the source list for O=C(c1cccc(Cl)c1[N+](=O)[O-])N1CCN(Cc2ccc(F)cc2)CC1 [Compound 26, 1‐[4‐(4‐Fluorobenzyl)piperazin‐1‐yl]‐(3‐chloro‐2‐nitro‐phenyl)methanone]?
cytotoxic effect [1]: absence of cytotoxicity; also recorded: no cytotoxic effect; also recorded: no cytotoxicity; viability at 48 h, 100 µM [2]: > 90%; antimelanogenic effect ([5]; B16F10 cells): exerted antimelanogenic effect; also recorded: displayed antimelanogenic effects; tyrosinase activity in cellular model (L‐DOPA staining) ([5]; lysates of α‐MSH-treated B16F10 cells, compound 0–100 μM, 48 h): decreased in a dose‐response manner; melting point: 91 to 92 °C; mode of inhibition of diphenolase activity [3]: competitive inhibitors

Which IC50 [4] does the source give for Oc1ccc(C=Nc2nnc(S)s2)c(O)c1 [Compound 2, 4‐(((5‐mercapto‐1,3,4‐thiadiazol‐2‐yl)imino)methyl)benzene‐1,3‐diol] here?
Its IC50 is 250 nM.

And the mode of inhibition [4]?
The mode of inhibition was “uncompetitive”.

With O=C(c1ccc([N+](=O)[O-])cc1[N+](=O)[O-])N1CCN(Cc2ccc(F)cc2)CC1 [Compound 5 c, [4‐(4‐fluorobenzyl)piperazin‐1‐yl](2,4‐dinitrophenyl)methanone] as the compound, how does the “mode of inhibition of diphenolase activity” value [6] read?
The value was “competitive inhibitor”.

For O=C(Cc1cccc(Br)c1)N1CCN(Cc2ccc(F)cc2)CC1 [Compound 14, 1‐[4‐(4‐Fluorobenzyl)piperazin‐1‐yl]‐2‐(3‐bromophenyl)ethan‐1‐one], which melting point is on record?
The melting point was 240 to 242 °C.

Which melting point does the source give for O=C(Cc1ccccc1Cl)N1CCN(Cc2ccc(F)cc2)CC1 [Compound 10, 1‐[4‐(4‐Fluorobenzyl)piperazin‐1‐yl]‐2‐(2‐chlorophenyl)ethan‐1‐one] here?
The melting point was 100 to 102 °C.

With O=C(Cc1cccc([N+](=O)[O-])c1)N1CCN(Cc2ccc(F)cc2)CC1 [Compound 17, 1‐[4‐(4‐Fluorobenzyl)piperazin‐1‐yl]‐2‐(3‐nitrophenyl)ethan‐1‐one] as the compound, how does the melting point read?
Its melting point is 83 to 84 °C.

With COc1ccc(CC(=O)N2CCN(Cc3ccc(F)cc3)CC2)cc1 [Compound 19, 1‐[4‐(4‐Fluorobenzyl)piperazin‐1‐yl]‐2‐(4‐methoxyphenyl)ethan‐1‐one] as the compound, how does the melting point read?
The melting point was 234 to 238 °C.

With O=C(Cc1ccccc1[N+](=O)[O-])N1CCN(Cc2ccc(F)cc2)CC1 [Compound 16, 1‐[4‐(4‐Fluorobenzyl)piperazin‐1‐yl]‐2‐(2‐nitrophenyl)ethan‐1‐one] as the compound, how does the melting point read?
Its melting point is 88 to 90 °C.
